In patent US5760240A, “Taxoid synthesis” (The Scripps Research Institute, priority 1995, dated 1998):

Key:
Ovcar 3 = experiment: Cytotoxicity against tumor cell lines: Ovcar 3; format: cell-based; settings: Homo sapiens; cell line Ovcar 3
BT-549 = experiment: Cytotoxicity against tumor cell lines: BT-549; format: cell-based; settings: Homo sapiens; cell line BT-549
UCLA-P3 = experiment: Cytotoxicity against tumor cell lines: UCLA-P3; format: cell-based; settings: Homo sapiens, UCLA P-3; cell line UCLA-P3
786-0 = experiment: Cytotoxicity against tumor cell lines: 786-0; format: cell-based; settings: Homo sapiens; cell line 786-0
SK-Mel-28 = experiment: Cytotoxicity against tumor cell lines: SK-Mel-28; format: cell-based; settings: Homo sapiens; cell line SK-Mel-28
HT-29 = experiment: Cytotoxicity against tumor cell lines: HT-29; format: cell-based; settings: Homo sapiens; cell line HT-29
L-1210 = experiment: Cytotoxicity against tumor cell lines: L-1210; format: cell-based; settings: Mus musculus, L1210; cell line L-1210
SK-NH-SH = experiment: Cytotoxicity against tumor cell lines: SK-NH-SH; format: cell-based; settings: cell line SK-NH-SH
SIH-A = experiment: Cytotoxicity against tumor cell lines: SIH-A; format: cell-based; settings: Homo sapiens, SiHa; cell line SIH-A
[1] = tested on: a variety of tumor cell lines; experiment: Cytotoxicity against a variety of tumor cell lines (in words); settings: 15 and 15' under the same conditions
A-549 = experiment: Cytotoxicity against tumor cell lines: A-549; format: cell-based; settings: Homo sapiens, A549; cell line A-549

SMILES	IC50 (Ovcar 3)	IC50 (BT-549)	IC50 (UCLA-P3)	IC50 (786-0)	IC50 (SK-Mel-28)	IC50 (HT-29)	IC50 (L-1210)	IC50 (SK-NH-SH)	IC50 (SIH-A)	cytotoxicity against a variety of tumor cell lines [1]	cytotoxicity against a variety of tumor cell lines ([1]; listed as 15')	IC50 (A-549)
CC(=O)O[C@H]1C(=O)[C@@]2(C)[C@H]([C@H](OC(=O)c3ccccc3)[C@]3(O)C[C@H](OC(=O)[C@H](O)[C@@H](NC(=O)c4ccccc4)c4ccccc4)C(C)=C1C3(C)C)[C@]1(OC(C)=O)CO[C@@H]1C[C@@H]2O [Taxol, reference compound]	0.62 nM	0.5 nM	6.4 nM	2200 nM	120 nM	51 nM	7 nM	0.62 nM	–	–	–	–
CC(=O)O[C@@H]1C2=C(C)[C@@H](OC(=O)[C@H](O)[C@@H](NC(=O)c3ccccc3)c3ccccc3)C[C@@](O)([C@@H](OC(=O)c3ccccc3)c3ccccc3[C@H]1OC(C)=O)C2(C)C [Compound 15]	280 nM	5300 nM	296 nM	1930 nM	2710 nM	129 nM	1110 nM	4910 nM	1290 nM	significant cytotoxicity	essentially no cytotoxicity	645 nM
